“And” between values parts separate entries of the source, which are not always exact repeats. Equal values may be shown once. “Also recorded” adds a separate entry of the source. Read-outs that look alike come from different tables or passages of the source.
How the values were obtained:
P. falciparum NF54 = assay: In vitro [3H]hypoxanthine incorporation assay, P. falciparum NF54; type: cell-based, Plasmodium falciparum; conditions: for IC50: 16 h + 8 h incubation, read-out: IC50 (mean ± SD) for P. falciparum NF54 (n = 3)
Method: Human erythrocytes served as the host cells. In vitro antimalarial activity was measured using the [^3H]hypoxanthine incorporation assay ([36]) with strain NF54 of P. falciparum (obtained from Hoffmann-LaRoche Ltd.). The compounds were dissolved in dimethyl sulfoxide (DMSO) at a concentration of 10 mM, diluted in hypoxanthine-free culture medium, and titrated in duplicate over a 64-fold range in 96-well plates. […] The parasites were harvested onto glass fiber filters, and radioactivity was measured using a BetaPlate liquid scintillation counter (Wallac, Zurich, Switzerland). All assays were repeated at least three times. The results were recorded and expressed as a percentage of the untreated controls. […] In addition, for the PK-PD analysis of KAE609, an IC99 value was determined by transforming the data from a scintillation counter (Anscombe transformation) to account for Poissonian measurement error. […] Each of the three replicates was performed on a distinct 96-well plate. This has been accounted for in the fitting procedure by means of a Bayesian hierarchical model. The software used for parameter inference was Stan ([37]).

[1] = test system: P. berghei GFP ANKA PbGFPCON; assay: In vitro (ex vivo) P. berghei maturation assay; type: cell-based, Plasmodium berghei
Method: For the in vitro (ex vivo) P. berghei maturation assays ([38]), heparinized blood from infected mice (P. berghei GFP ANKA malaria strain PbGFPCON, a donation from A. P. Waters and C. J. Janse, Leiden University, Leiden, the Netherlands) ([39]) was washed with 9 ml of hypoxanthine-free culture medium and diluted with hypoxanthine-free culture medium and red blood cells (RBCs) from uninfected mice to a hematocrit of 5% and a parasitemia of 0.3%. Serial compound dilutions were prepared in DMSO and distributed as described above. The infected erythrocytes (0.3% final parasitemia and 2.5% final hematocrit) were added into the wells. After the plates were incubated for 16 h, 0.25 μCi of [^3H]hypoxanthine was added per well, and the plates were incubated for an additional 8 h. The parasites were harvested, and the in vitro (ex vivo) P. berghei IC50, IC90, and IC99 values were determined as described above.

[2] = test system: P. berghei GFP ANKA malaria strain PbGFPCON; assay: Dose-response efficacy in the P. berghei malaria mouse model; type: in vivo, female NMRI mice; conditions: for Hill slope: dose vs parasitemia model; for Pmax (maximum parasitemia) / Pmin (minimum parasitemia): sigmoid dose-response model, single oral doses 24 h postinfection; for Pmax (maximum parasitemia) / Pmin (minimum parasitemia) / ED90 (effective dose causing a 90% reduction in parasitemia): parasitemia 72 h postinfection; for ED90 (effective dose causing a 90% reduction in parasitemia): single oral dose 24 h postinfection; for Efficacy in the P. berghei mouse model: single oral doses 2.5 to 100 mg/kg
From the text: All in vivo studies conducted at the Swiss Tropical and Public Health Institute (TPH) adhered to local and national regulations of laboratory animal welfare in Switzerland (permission no. 1731). For in vivo efficacy, female (specific-pathogen-free) […] (NMRI) mice were obtained from Janvier, Le Genest-Saint-Isle, France. Only mice without visible signs of disease were used for the study. Standard laboratory conditions were adopted for husbandry. In vivo antimalarial activity was assessed using groups of five female NMRI mice (20 to 22 g) intravenously infected on day zero with 2 × 10^7 erythrocytes parasitized with P. berghei GFP ANKA malaria strain PbGFPCON (a donation from A. P. Waters and C. J. Janse, Leiden University) ([39]). Untreated control mice typically died between day six and day seven postinfection. Experimental compounds were formulated in 10% ethanol, 30% PEG 400, and 60% of 10% vitamin E TPGS and were administered orally in a volume of 10 ml/kg. Dose-response efficacy studies were conducted for each spiroindolone analog. Doses of 2.5, 5, 10, 30, and 100 mg/kg were administered to groups of 5 mice each as a single dose at 24 h postinfection. Parasitemia, expressed as parasitized red blood cells (pRBCs) of >100 RBCs, was determined 72 h postinfection using standard flow cytometry techniques ([39]).
Data analysis was done using nonlinear mixed-effect modeling (NONMEM version VI 2.0), which analyzed the PD data from multiple dose groups obtained simultaneously from different experiments. Within NONMEM, first-order conditional estimation (FOCE) was the method used ([40]). The log-transformed dose and level of parasitemia were used for analysis. For each compound, a dose-response model was built, and the ED90 (effective dose lowering 90% of parasitemia) values were determined using equation 1 ([41]), where P is the parasitemia measured at any given dose, Pmax is the maximum level of parasitemia, Pmin is the minimum level of parasitemia, EZ50 is the dose required to produce 50% of the maximal effect, s is the Hill slope describing the steepness of the curve, and x is the dose (in mg/kg). 1 P=Pmin +{[Pmax−Pmin]/[1+10^(logEZ50−log x)×s]}

[3] = Intrinsic clearance in mouse liver microsomes; type: in vitro ADME; conditions: per mg protein
From the text: (§1) page 5: Running title: PreclinicalPK -PD of antimalarials 73 to high through put form at using in- house standard assa y protocols that are described in the 74 literature. 75 (a)HT-Equilibrium solubilit y at pH 6.8( 1); (b)Parallel Artificial Membrane P ermeability Assa y 76 expressed in % fraction absorbed (FA) ( 2,3 ); (c)Apparent permeability from apical to […] 78 tested; (d)intrinsic clearance in mouse liver micro somes ex pressed as µ L/ min/mg protein, in 79 the presen ce of liver enzym es ( 6); (e)Mous e plasm a protein binding using rapid equilibrium […] 81 82 83 84 85 86 87 88 89 90 91 92 93 94 95 96 97 98 5

[4] = RBC to plasma partitioning; type: in vitro ADME; conditions: mean from 1 µM & 10 µM
From the text: page 5: Running title: PreclinicalPK -PD of antimalarials 73 to high through put form at using in- house standard assa y protocols that are described in the 74 literature. […] 81 82 83 84 85 86 87 88 89 90 91 92 93 94 95 96 97 98 5

Caco-2 cells = assay: Caco-2 permeability; type: in vitro ADME; conditions: apical to basolateral
From the text: as §1

[5] = Mouse plasma protein binding, rapid equilibrium dialysis; type: in vitro ADME
From the text: as §1

[6] = 16 h + 8 h incubation, read-out: IC50 (mean ± SD) for P. berghei GFP ANKA PbGFPCON (n = 3)

Row | Compound | IC50 (P. falciparum NF54) [nM] | IC50 [1, 6] [nM] | Hill slope [2] | Pmax (maximum parasitemia) [2] | Pmin (minimum parasitemia) [2] | ED90 (effective dose causing a 90% reduction in parasitemia) [2] [mg/kg] | Hepatic CLint in mouse liver microsomes [3] [µL/min/mg] | RBC to Plasma Ratio [4] | Caco-2 Papp (A-B) (Caco-2 cells) | Mouse PPB [5] [%] | Threshold (TRE), 2 × P. falciparum IC99 (P. falciparum NF54) [ng/mL] | IC50 (P. falciparum NF54; Plasmodium falciparum, NF54) [nM] | Threshold (TRE), 2× the P. berghei IC99 [1] | IC50 ([1]; Plasmodium berghei, read-out: IC50 against P. berghei in vitro) [µg/mL] | IC50 ([1]; Plasmodium berghei, 16 h + 8 h incubation, read-out: IC50 (mean ± SD) for P. berghei GFP ANKA PbGFPCON (n = 3)) [nM] | IC99 in the ex vivo P. berghei maturation assay ([1]; four-parametric logistic fit, Bayesian hierarchical model) [nM] | Complete cure (>30 days survival) ([2]; data not shown) | microsomal CLint ([3]; mouse, liver microsomes, read-out: Hepatic CLint in mouse liver microsomes) [µL/min/mg] | In vitro activity against P. falciparum (P. falciparum NF54) | Efficacy in the P. berghei mouse model [2]
1 | C[C@H]1Cc2c([nH]c3ccc(Cl)cc23)[C@@]2(N1)C(=O)Nc1ccc(Cl)cc12 [(+)-2] | 5.6 ± 0.9 | 75 ± 32 | −3.36 | 30.90 | 0.03 | 17.4 | 92 | 0.77 | – | – | – | – | – | – | – | – | – | – | – | –
2 | C[C@H]1Cc2c([nH]c3cc(Cl)ccc23)[C@@]2(N1)C(=O)Nc1ccc(Cl)cc12 [(+)-3] | 5.6 ± 0.7 | 140 ± 54 | −6.4 | 24.55 | 0.12 | 17.9 | 35 | 0.93 | 41.7 10-6 cm/sec | 99.7 | – | – | – | – | – | – | – | – | – | –
3 | C[C@H]1Cc2c([nH]c3ccc(F)cc23)[C@@]2(N1)C(=O)Nc1ccc(Cl)cc12 [(+)-4] | 5.9 ± 0.9 | 104 ± 53 | −2.87 | 30.90 | 0.03 | 16.7 | 330 | 0.62 | 7.66 10-6 cm/sec | 98.8 | – | – | – | – | – | – | – | – | – | –
4 | C[C@H]1Cc2c([nH]c3cc(F)ccc23)[C@@]2(N1)C(=O)Nc1ccc(Cl)cc12 [(+)-5] | 4.3 ± 0.4 | 88 ± 26 | −2.99 | 25.70 | 0.05 | 38.1 | 26 | 1.18 | 4.33 10-6 cm/sec | 98.5 | – | – | – | – | – | – | – | – | – | –
5 | C[C@H]1Cc2c([nH]c3cc(F)c(F)cc23)[C@@]2(N1)C(=O)Nc1ccc(Cl)cc12 [(+)-6] | 0.33 ± 0.06 | 7.5 ± 2.5 | −2.03 | 32.36 | 0.09 | 17.3 | 41 | 1.12 | 5.55 10-6 cm/sec | 99.5 | – | – | – | – | – | – | – | – | – | –
6 | C[C@H]1Cc2c([nH]c3cc(Cl)c(F)cc23)[C@@]2(N1)C(=O)Nc1ccc(Cl)cc12 [(+)-7 (KAE609)] | – | – | −2.73 | 33.88 | 0.29 | 5.6 | – | – | – | – | 1 | 1.2 ± 0.2 | 123 nM and 48 ng/ml | 0.01 | 26 ± 14 | 61.6 | complete cure | 28 | – | –
7 | C[C@@H]1Cc2c([nH]c3cc(F)c(F)cc23)[C@]2(N1)C(=O)Nc1ccc(Cl)cc12 [(−)-6] | 105 ± 20 | 2850 | – | – | – | – | 36 | 0.81 | 4.8 10-6 cm/sec | 99.6 | – | – | – | – | – | – | – | – | submicromolar | no efficacy; also recorded: poor efficacy regardless of dose
8 | C[C@@H]1Cc2c([nH]c3cc(Cl)c(F)cc23)[C@]2(N1)C(=O)Nc1ccc(Cl)cc12 [(−)-7] | 210 ± 19 | 4910 | – | – | – | – | 21 | 0.52 | 1.73 10-6 cm/sec | 99.4 | – | – | – | – | – | – | – | – | submicromolar | no efficacy; also recorded: poor efficacy regardless of dose

From paper PMC4335872, “Pharmacokinetic-Pharmacodynamic Analysis of Spiroindolone Analogs and KAE609 in a Murine Malaria Model” (Antimicrobial Agents and Chemotherapy, 2015)
